Drawing on patent US8859580B2 (Boehringer Ingelheim International GmbH, priority 2007, dated 2014), this text covers IC50 for 30 compounds.

As a reminder, the IC50 is the midpoint of a concentration-inhibition curve. One may read the pIC50 as −log10 of the IC50, conventionally taken in molar units.

pIC50: −log10 of the molar value. Like-named read-outs stand apart in the source and are kept apart here.

For this assay, the target named is T1, 11β-HSD1 (Homo sapiens, UniProt P28845).
T1 construct: detecting cortisol generated from cortisterone by human liver microsomes; from tissue; host or cells: human liver microsomes
Briefly: In vitro inhibition of 11β-HSD1, HTRF detection of cortisol generated from cortisone by human liver microsomes. The format is biochemical. To be noted: 1 hour at 37° C., pH 6.0, NADPH 200 μM, cortisone 80 nM, inhibition relative to carbenoxolone signal; for IC50: 11β-HSD IC50 (nM); for pIC50: read-out: 11β-HSD IC50. A digest of the protocol:
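Cortisol formed from cortisone by human liver microsomes quantified by competitive HTRF immunoassay (XL665-cortisol, Eu-cryptate anti-cortisol antibody), 2 h detection, Em665/Em615 ratio converted via cortisol calibration curve. Percent inhibition relative to carbenoxolone signal; IC50 from curves.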
On the technique in general: TR-FRET usually uses a lanthanide donor and a delayed reading to cut background.

T1 sequence (P28845 whole entry): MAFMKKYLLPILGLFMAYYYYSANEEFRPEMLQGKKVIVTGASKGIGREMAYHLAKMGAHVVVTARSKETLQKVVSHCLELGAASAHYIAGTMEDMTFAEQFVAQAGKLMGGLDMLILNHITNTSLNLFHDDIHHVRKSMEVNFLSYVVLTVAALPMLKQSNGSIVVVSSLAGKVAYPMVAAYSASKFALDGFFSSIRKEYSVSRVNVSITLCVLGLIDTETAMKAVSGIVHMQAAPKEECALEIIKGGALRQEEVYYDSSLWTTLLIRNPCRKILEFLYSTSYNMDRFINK

Regarding `COc1cc2c(cc1O)C1(C)CCN(C(=O)c3ccc4nc[nH]c4c3)C(C2)C1(C)C` (stereo not drawn) [Example 73, (3H-Benzoimidazol-5-yl)-(8-hydroxy-9-methoxy-6,11,11-trimethyl-1,2,5,6-tetrahydro-4H-2,6-methano-benzo[d]azocin-3-yl)-methanone], half-maximal inhibition (IC50) was put at 88 nM.

Compound `COc1ccc2c(c1)C[C@H]1N(C(=O)c3ccc4nc[nH]c4c3)CC[C@]2(C)C1(C)C` [Example 74, (3H-Benzoimidazol-5-yl)-[(2R,6S)-9-methoxy-6,11,11-trimethyl-1,2,5,6-tetrahydro-4H-2,6-methano-benzo[d]azocin-3-yl]-methanone] registered an IC50 of 69 nM.

As for `CC12CCN(C(=O)c3ccc4nc[nH]c4c3)C(Cc3ccc(Cl)cc31)C2(C)C` (stereo not drawn) [Example 75, (3H-Benzoimidazol-5-yl)-(8-chloro-6,11,11-trimethyl-1,2,5,6-tetrahydro-4H-2,6-methano-benzo[d]azocin-3-yl)-methanone], it took 395 nM to reach half-maximal inhibition (IC50).

For the compound `COc1cccc2c1C[C@H]1N(C(=O)c3ccc4nc[nH]c4c3)CC[C@]2(C)C1(C)C` [Example 76, (3H-Benzoimidazol-5-yl)-[(2R,6S)-10-methoxy-6,11,11-trimethyl-1,2,5,6-tetrahydro-4H-2,6-methano-benzo[d]azocin-3-yl]-methanone], the IC50 stood at 166 nM.

As to `CC12CCN(C(=O)c3ccc4nc[nH]c4c3)C(Cc3cccc(O)c31)C2(C)C` (stereo not drawn) [Example 78, (3H-Benzoimidazol-5-yl)-(7-hydroxy-6,11,11-trimethyl-1,2,5,6-tetrahydro-4H-2,6-methano-benzo[d]azocin-3-yl)-methanone], half-maximal inhibition (IC50) was put at 67 nM.

`CC1(C)[C@@H]2Cc3ccc(O)cc3[C@@]1(C)CCN2C(=O)c1ccc2nc[nH]c2c1` [Example 79, (3H-Benzoimidazol-5-yl)-[(2S,6R)-8-hydroxy-6,11,11-trimethyl-1,2,5,6-tetrahydro-4H-2,6-methano-benzo[d]azocin-3-yl]-methanone] showed an IC50 of 1370 nM.

The compound `CC1(C)[C@H]2Cc3ccc(O)cc3[C@]1(C)CCN2C(=O)c1ccc2nc[nH]c2c1` [Example 80, (3H-Benzoimidazol-5-yl)-[(2R,6S)-8-hydroxy-6,11,11-trimethyl-1,2,5,6-tetrahydro-4H-2,6-methano-benzo[d]azocin-3-yl]-methanone] displayed an IC50 of 40 nM.

As for `Cn1cnc2ccc(C(=O)N3CC[C@@]4(C)c5cccc(O)c5C[C@@H]3C4(C)C)cc21` [Example 81, [(2R,6S)-10-Hydroxy-6,11,11-trimethyl-1,2,5,6-tetrahydro-4H-2,6-methano-benzo[d]azocin-3-yl]-(3-methyl-3H-benzoimidazol-5-yl)-methanone], half-maximal inhibition (IC50) was put at 463 nM.

Regarding `C[C@@H]1[C@H]2Cc3ccc(C#N)cc3[C@]1(C)CCN2C(=O)c1ccc2nc[nH]c2c1` [Example 84, (2R,6R,11S)-3-(3H-Benzoimidazole-5-carbonyl)-6,11-dimethyl-1,2,3,4,5,6-hexahydro-2,6-methano-benzo[d]azocine-8-carbonitrile], the concentration for half-maximal inhibition (IC50) was 139 nM.

As to `CCCC12CCN(C(=O)c3ccc4nc[nH]c4c3)C(Cc3ccc(O)cc31)C2` (stereo not drawn) [Example 88, (3H-Benzoimidazol-5-yl)-(8-hydroxy-6-propyl-1,2,5,6-tetrahydro-4H-2,6-methano-benzo[d]azocin-3-yl)-methanone], the IC50 turned out to be 171 nM.

As for `CCC12CCN(C(=O)c3ccc4nc[nH]c4c3)C(Cc3ccc(O)cc31)C2(C)C` (stereo not drawn) [Example 89, (3H-Benzoimidazol-5-yl)-(6-ethyl-8-hydroxy-11,11-dimethyl-1,2,5,6-tetrahydro-4H-2,6-methano-benzo[d]azocin-3-yl)-methanone], half-maximal inhibition (IC50) required 62 nM.

The compound `CCC12CCN(C(=O)c3ccc4nc[nH]c4c3)C(Cc3ccc(O)cc31)C2` (stereo not drawn) [Example 90, (3H-Benzoimidazol-5-yl)-(6-ethyl-8-hydroxy-1,2,5,6-tetrahydro-4H-2,6-methano-benzo[d]azocin-3-yl)-methanone] yielded an IC50 of 468 nM.

In turn, `CCOC(=O)c1ccc2c(c1)[C@]1(C)CCN(C(=O)c3ccc4nc[nH]c4c3)[C@H](C2)[C@H]1C` [Example 91, (2R,6R,11S)-3-(3H-Benzoimidazole-5-carbonyl)-6,11-dimethyl-1,2,3,4,5,6-hexahydro-2,6-methano-benzo[d]azocine-8-carboxylic acid ethyl ester] returned an IC50 of 711 nM.

`CC12CCN(C(=O)c3ccc4ncsc4c3)C(Cc3ccc(O)cc31)C2` (stereo not drawn) [Example 92, benzothiazol-6-yl-(8-hydroxy-6-methyl-1,2,5,6-tetrahydro-4H-2,6-methano-benzo[d]azocin-3-yl)-methanone] showed a concentration for half-maximal inhibition (IC50) of 1110 nM.

Regarding `CC1(C)[C@H]2Cc3c(C#N)cccc3[C@]1(C)CCN2C(=O)c1ccc2nc[nH]c2c1` [Example 93, (2R,6S)-3-(3H-Benzoimidazole-5-carbonyl)-6,11,11-trimethyl-1,2,3,4,5,6-hexahydro-2,6-methano-benzo[d]azocine-10-carbonitrile], the IC50 stood at 2060 nM.

`COC(=O)C12CCN(C(=O)c3ccc4ncsc4c3)C(Cc3ccc(O)cc31)C2` (stereo not drawn) [Example 94, 3-(Benzothiazole-6-carbonyl)-8-hydroxy-2,3,4,5-tetrahydro-1H-2,6-methano-benzo[d]azocine-6-carboxylic acid methyl ester] displayed an IC50 of 6720 nM.

`CCOC(=O)c1cccc2c1C[C@H]1N(C(=O)c3ccc4nc[nH]c4c3)CC[C@]2(C)C1(C)C` [Example 95, (2R,6S)-3-(1H-Benzoimidazole-5-carbonyl)-6,11,11-trimethyl-1,2,3,4,5,6-hexahydro-2,6-methano-benzo[d]azocine-10-carboxylic acid ethyl ester]: half-maximal inhibition (IC50) required 3840 nM.

As for `CC12CCN(C(=O)c3ccc4nc[nH]c4c3)C(Cc3cc(C#N)ccc31)C2(C)C` (stereo not drawn) [Example 96, 3-(1H-Benzoimidazole-5-carbonyl)-6,11,11-trimethyl-1,2,3,4,5,6-hexahydro-2,6-methano-benzo[d]azocine-9-carbonitrile], the IC50 came to 95 nM.

For the compound `CCOC(=O)c1ccc2c(c1)CC1N(C(=O)c3ccc4nc[nH]c4c3)CCC2(C)C1(C)C` (stereo not drawn) [Example 97, 3-(1H-Benzoimidazole-5-carbonyl)-6,11,11-trimethyl-1,2,3,4,5,6-hexahydro-2,6-methano-benzo[d]azocine-9-carboxylic acid ethyl ester], the IC50 was found to be 1130 nM.

As to `CC12CCN(C(=O)c3ccc4nc[nH]c4c3)C(CCc3ccccc31)C2` (stereo not drawn) [Example 98, (3H-Benzoimidazol-5-yl)-(1-methyl-11-aza-tricyclo[8.3.1.0*2,7*]tetradeca-2,4,6-trien-11-yl)-methanone], the pIC50 was 6.90.

On to `COc1ccc2c(c1)C1CCN(C(=O)c3ccc4nc[nH]c4c3)C2C1` (stereo not drawn) [Example 99, (3H-Benzoimidazol-5-yl)-(4-methoxy-9-aza-tricyclo[6.3.1.0*2,7*]dodeca-2,4,6-trien-9-yl)-methanone], for which the pIC50 was 6.55.

Regarding `O=C(c1ccc2nc[nH]c2c1)N1CCC2CC1c1ccc(O)cc12` (stereo not drawn) [Example 100, (3H-Benzoimidazol-5-yl)-(4-hydroxy-9-aza-tricyclo[6.3.1.0*2,7*]dodeca-2,4,6-trien-9-yl)-methanone], the pIC50 is 6.25.

The compound `CC1(C)[C@H]2Cc3cc(-c4ccccc4)ccc3[C@]1(C)CCN2C(=O)c1ccc2nc[nH]c2c1` [Example 102, (3H-Benzoimidazol-5-yl)-[(2R,6S)-6,11,11-trimethyl-9-phenyl-1,2,5,6-tetrahydro-4H-2,6-methano-benzo[d]azocin-3-yl]-methanone] showed an IC50 of 1460 nM.

As to `COC12CCN(C(=O)c3ccc4nc[nH]c4c3)C(Cc3ccccc31)C2(C)C` (stereo not drawn) [Example 103, (3H-Benzoimidazol-5-yl)-(6-methoxy-11,11-dimethyl-1,2,5,6-tetrahydro-4H-2,6-methano-benzo[d]azocin-3-yl)-methanone], it took 86 nM to reach half-maximal inhibition (IC50).

Compound `COc1cccc2c1C[C@H]1N(C(=O)c3ccoc3C)CC[C@]2(C)C1(C)C` [Example 104, [(2R,6S)-10-Methoxy-6,11,11-trimethyl-l,2,5,6-tetrahydro-4H-2,6-methano-benzo[d]azocin-3-yl]-(2-methyl-furan-3-yl)-methanone] gave an IC50 of 1390 nM.

`CC1C2Cc3ccc(O)cc3C1(C)CCN2C(=O)c1ccccc1` (stereo not drawn) [Example 105, (8-Hydroxy-6,11-dimethyl-1,2,5,6-tetrahydro-4H-2,6-methano-benzo[d]azocin-3-yl)-phenyl-methanone] registered an IC50 of 1330 nM.

`Cc1ccccc1C(=O)N1CCC2(C)c3cc(O)ccc3CC1C2C` (stereo not drawn) [Example 106, (8-Hydroxy-6,11-dimethyl-1,2,5,6-tetrahydro-4H-2,6-methano-benzo[d]azocin-3-yl)-o-tolyl-methanone]: the IC50 stood at 2960 nM.

Turning to `COc1ccc2c(c1)[C@]1(C)CCN(C(=O)c3cccnc3)[C@H](C2)[C@@H]1C` [Example 107, [(2R,6R,11R)-8-Methoxy-6,11-dimethyl-1,2,5,6-tetrahydro-4H-2,6-methano-benzo[d]azocin-3-yl]-pyridin-3-yl-methanone], the IC50 was 2550 nM.

The compound `COc1ccc2c(c1)[C@]1(C)CCN(C(=O)c3ccccc3[N+](=O)[O-])[C@H](C2)[C@@H]1C` [Example 108, [(2R,6R,11R)-8-Methoxy-6,11-dimethyl-1,2,5,6-tetrahydro-4H-2,6-methano-benzo[d]azocin-3-yl]-(2-nitro-phenyl)-methanone] registered an IC50 of 140 nM.

`COc1ccc2c(c1)[C@]1(C)CCN(C(=O)c3ccccc3C)[C@H](C2)[C@@H]1C` [Example 109, [(2R,6R,11R)-8-Methoxy-6,11-dimethyl-1,2,5,6-tetrahydro-4H-2,6-methano-benzo[d]azocin-3-yl]-o-tolyl-methanone] returned an IC50 of 1460 nM.
